Data reported in ChEMBL document CHEMBL1201861, “Genomics of Drug Sensitity in Cancer screening data, Wellcome Trust Sanger Institute”.

What was measured:
Experiment in all cases: cells
COLO-741 = format: functional, cell-based, Homo sapiens; conditions: Homo sapiens, COLO-741
Description: SANGER: Inhibition of human COLO-741 cell growth in a cell viability assay.

COLO-800 = format: functional, cell-based, Homo sapiens; conditions: Homo sapiens, COLO-800;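 also: growth inhibition of COLO-800 cells, read out with a cell viability assay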
Description: SANGER: Inhibition of human COLO-800 cell growth in a cell viability assay.

CP66-MEL = format: functional, cell-based, Homo sapiens; conditions: Homo sapiens, CP66-MEL;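 also: growth inhibition of CP66-MEL cells determined in a cell viability assay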
Description: SANGER: Inhibition of human CP66-MEL cell growth in a cell viability assay.

DBTRG-05MG = format: functional, cell-based, Homo sapiens; conditions: Homo sapiens, DBTRG-05MG;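 also: cell viability assay measuring growth inhibition of human DBTRG-05MG cells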
Description: SANGER: Inhibition of human DBTRG-05MG cell growth in a cell viability assay.

DU-4475 = format: functional, cell-based; conditions: Homo sapiens
Description: SANGER: Inhibition of human DU-4475 cell growth in a cell viability assay.

EFO-27 = format: functional, cell-based, Homo sapiens; conditions: Homo sapiens, EFO-27;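 also: growth inhibition of EFO-27 cells, read out with a cell viability assay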
Description: SANGER: Inhibition of human EFO-27 cell growth in a cell viability assay.

GB-1 = format: functional, cell-based, Homo sapiens; conditions: Homo sapiens, GB-1;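 also: growth of GB-1 cells judged by a viability assay, IC50 marks the concentration inhibiting growth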
Description: SANGER: Inhibition of human GB-1 cell growth in a cell viability assay.

GP5d = format: functional, cell-based, Homo sapiens; conditions: Homo sapiens, GP5d;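 also: growth inhibition of human GP5d cells, read out with a cell viability assay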
Description: SANGER: Inhibition of human GP5d cell growth in a cell viability assay.

HAL-01 = format: functional, cell-based; conditions: Homo sapiens;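 also: growth inhibition of human HAL-01 cells, read out with a cell viability assay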
Description: SANGER: Inhibition of human HAL-01 cell growth in a cell viability assay.

HCC2157 = format: functional, cell-based; conditions: Homo sapiens;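 also: growth inhibition of the cancer cell line, read out as cell viability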
Description: SANGER: Inhibition of human HCC2157 cell growth in a cell viability assay.

HDLM-2 = format: functional, cell-based; conditions: Homo sapiens;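 also: cell viability assay measuring suppression of HDLM-2 proliferation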
Description: SANGER: Inhibition of human HDLM-2 cell growth in a cell viability assay.

HT-1080 = format: functional, cell-based, Homo sapiens; conditions: Homo sapiens, HT-1080
Description: SANGER: Inhibition of human HT-1080 cell growth in a cell viability assay.

KNS-81-FD = format: functional, cell-based, Homo sapiens; conditions: Homo sapiens, KNS-81-FD;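 also: growth inhibition of KNS-81-FD cells, read out with a cell viability assay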
Description: SANGER: Inhibition of human KNS-81-FD cell growth in a cell viability assay.

KU-19-19 = format: functional, cell-based, Homo sapiens; conditions: Homo sapiens, KU-19-19
Description: SANGER: Inhibition of human KU-19-19 cell growth in a cell viability assay.

KYSE-140 = format: functional, cell-based, Homo sapiens; conditions: Homo sapiens, KYSE-140;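 also: cell viability assay measuring growth inhibition in human KYSE-140 cells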
Description: SANGER: Inhibition of human KYSE-140 cell growth in a cell viability assay.

KYSE-510 = format: functional, cell-based, Homo sapiens; conditions: Homo sapiens, KYSE-510;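 also: cell viability readout used to measure how strongly growth of the cell line is suppressed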
Description: SANGER: Inhibition of human KYSE-510 cell growth in a cell viability assay.

LC-2-ad = format: functional, cell-based, Homo sapiens; conditions: Homo sapiens, LC-2-ad;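 also: growth inhibition of human LC-2-ad cells, read out with a cell viability assay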
Description: SANGER: Inhibition of human LC-2-ad cell growth in a cell viability assay.

LK-2 = format: functional, cell-based, Homo sapiens; conditions: Homo sapiens, LK-2;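 also: growth inhibition of LK-2 cells, read out with a viability assay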
Description: SANGER: Inhibition of human LK-2 cell growth in a cell viability assay.

LU-139 = format: functional, cell-based; conditions: Homo sapiens
Description: SANGER: Inhibition of human LU-139 cell growth in a cell viability assay.

M059J = format: functional, cell-based, Homo sapiens; conditions: Homo sapiens, M059J;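 also: growth inhibition of M059J cells, read out with a cell viability assay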
Description: SANGER: Inhibition of human M059J cell growth in a cell viability assay.

MC-IXC = format: functional, cell-based, Homo sapiens; conditions: Homo sapiens, MC-IXC;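 also: growth inhibition of MC-IXC cells, read out with a cell viability assay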
Description: SANGER: Inhibition of human MC-IXC cell growth in a cell viability assay.

MeWo = format: functional, cell-based, Homo sapiens; conditions: Homo sapiens, MeWo;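 also: growth inhibition of MeWo cells, determined by a cell viability readout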
Description: SANGER: Inhibition of human Mewo cell growth in a cell viability assay.

Mo = format: functional, cell-based; conditions: Homo sapiens
Description: SANGER: Inhibition of human Mo-T cell growth in a cell viability assay.

NB12 = format: functional, cell-based, Homo sapiens; conditions: Homo sapiens, NB12;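 also: growth inhibition of human NB12 cells, read out by a cell viability assay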
Description: SANGER: Inhibition of human NB12 cell growth in a cell viability assay.

NCI-H1304 = format: functional, cell-based; conditions: Homo sapiens;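 also: growth inhibition of the cancer cell line, measured in a cell viability assay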
Description: SANGER: Inhibition of human NCI-H1304 cell growth in a cell viability assay.

NCI-H1563 = format: functional, cell-based, Homo sapiens; conditions: Homo sapiens, NCI-H1563;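 also: growth inhibition of human NCI-H1563 cells, read out with a cell viability assay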
Description: SANGER: Inhibition of human NCI-H1563 cell growth in a cell viability assay.

NEC8 = format: functional, cell-based, Homo sapiens; conditions: Homo sapiens, NEC8;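 also: growth inhibition of human NEC8 cells, read out by a cell viability assay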
Description: SANGER: Inhibition of human NEC8 cell growth in a cell viability assay.

NH-12 = format: functional, cell-based, Homo sapiens; conditions: Homo sapiens, NH-12;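 also: growth inhibition of NH-12 cells, read out with a cell viability assay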
Description: SANGER: Inhibition of human NH-12 cell growth in a cell viability assay.

OE33 = format: functional, cell-based, Homo sapiens; conditions: Homo sapiens, OE33;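 also: growth inhibition of human OE33 cells, measured by a cell viability assay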
Description: SANGER: Inhibition of human OE33 cell growth in a cell viability assay.

OS-RC-2 = format: functional, cell-based, Homo sapiens; conditions: Homo sapiens, OS-RC-2;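 also: growth inhibition of human OS-RC-2 cells, measured by a cell viability assay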
Description: SANGER: Inhibition of human OS-RC-2 cell growth in a cell viability assay.

OVCAR-5 = format: functional, cell-based, Homo sapiens; conditions: Homo sapiens, OVCAR-5;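 also: growth inhibition of human OVCAR-5 cells, read out with a cell viability assay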
Description: SANGER: Inhibition of human OVCAR-5 cell growth in a cell viability assay.

PA-1 = format: functional, cell-based, Homo sapiens; conditions: Homo sapiens, PA-1;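 also: IC50 for suppression of PA-1 cell proliferation, determined with a cell viability read-out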
Description: SANGER: Inhibition of human PA-1 cell growth in a cell viability assay.

PSN1 = format: functional, cell-based, Homo sapiens; conditions: Homo sapiens, PSN1;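 also: suppression of growth of human PSN1 cells, read out by a cell viability assay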
Description: SANGER: Inhibition of human PSN1 cell growth in a cell viability assay.

RVH-421 = format: functional, cell-based, Homo sapiens; conditions: Homo sapiens, RVH-421
Description: SANGER: Inhibition of human RVH-421 cell growth in a cell viability assay.

SCC-4 = format: functional, cell-based, Homo sapiens; conditions: Homo sapiens, SCC-4;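 also: growth inhibition of human SCC-4 cells, read out as cell viability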
Description: SANGER: Inhibition of human SCC-4 cell growth in a cell viability assay.

SCH = format: functional, cell-based, Homo sapiens; conditions: Homo sapiens, SCH;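 also: growth inhibition of human SCH cells, read out in a cell viability assay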
Description: SANGER: Inhibition of human SCH cell growth in a cell viability assay.

SK-HEP1 = format: functional, cell-based, Homo sapiens, SK-HEP-1; conditions: Homo sapiens, SK-HEP1;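 also: cell viability readout used to quantify reduction in proliferation of human SK-HEP-1 cells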
Description: SANGER: Inhibition of human SK-HEP-1 cell growth in a cell viability assay.

SK-LMS-1 = format: functional, cell-based, Homo sapiens; conditions: Homo sapiens, SK-LMS-1;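 also: growth inhibition of human SK-LMS-1 cells, read out with a cell viability assay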
Description: SANGER: Inhibition of human SK-LMS-1 cell growth in a cell viability assay.

SK-OV-3 = format: functional, cell-based, Homo sapiens; conditions: Homo sapiens, SK-OV-3;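 also: growth inhibition of SK-OV-3 human cells, read out with a cell viability assay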
Description: SANGER: Inhibition of human SK-OV-3 cell growth in a cell viability assay.

SN12C = format: functional, cell-based, Homo sapiens; conditions: Homo sapiens, SN12C;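 also: growth inhibition of human SN12C cells, measured by a cell viability assay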
Description: SANGER: Inhibition of human SN12C cell growth in a cell viability assay.

ACN = format: functional, cell-based, Homo sapiens; conditions: Homo sapiens, ACN;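 also: growth inhibition of the human ACN cell line, read out via cell viability testing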
Description: SANGER: Inhibition of human ACN cell growth in a cell viability assay.

AN3-CA = format: functional, cell-based; conditions: Homo sapiens;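 also: growth inhibition of human AN3-CA cells measured by a cell viability assay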
Description: SANGER: Inhibition of human AN3-CA cell growth in a cell viability assay.

BV-173 = format: functional, cell-based; conditions: Homo sapiens
Description: SANGER: Inhibition of human BV-173 cell growth in a cell viability assay.

CAL-33 = format: functional, cell-based, Homo sapiens; conditions: Homo sapiens, CAL-33;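 also: growth inhibition of CAL-33 cells, read out with a cell viability assay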
Description: SANGER: Inhibition of human CAL-33 cell growth in a cell viability assay.

CAL-39 = format: functional, cell-based, Homo sapiens; conditions: Homo sapiens, CAL-39;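 also: cell viability assay measuring growth inhibition of CAL-39 cells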
Description: SANGER: Inhibition of human CAL-39 cell growth in a cell viability assay.

CAL-54 = format: functional, cell-based, Homo sapiens; conditions: Homo sapiens, CAL-54;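 also: growth inhibition of CAL-54 cells, read out by a viability measurement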
Description: SANGER: Inhibition of human CAL-54 cell growth in a cell viability assay.

TE-12 = format: functional, cell-based; conditions: Homo sapiens;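 also: growth inhibition of TE-12 cells, read out by a cell viability assay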
Description: SANGER: Inhibition of human TE-12 cell growth in a cell viability assay.

TE-5 = format: functional, cell-based, Homo sapiens; conditions: Homo sapiens, TE-5;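 also: inhibition of cell growth, read out by a cell viability assay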
Description: SANGER: Inhibition of human TE-5 cell growth in a cell viability assay.

WM-115 = format: functional, cell-based, Homo sapiens; conditions: Homo sapiens, WM-115
Description: SANGER: Inhibition of human WM-115 cell growth in a cell viability assay.

CAPAN-1 = format: functional, cell-based, Homo sapiens; conditions: Homo sapiens, CAPAN-1;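 also: growth suppression of CAPAN-1 cells, read out by a cell viability assay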
Description: SANGER: Inhibition of human CAPAN-1 cell growth in a cell viability assay.

KP-N-YN = format: functional, cell-based; conditions: Homo sapiens;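 also: growth inhibition of KP-N-YN cells, read out with a cell viability assay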
Description: SANGER: Inhibition of human KP-N-YN cell growth in a cell viability assay.

NB7 = format: functional, cell-based; conditions: Homo sapiens;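 also: growth inhibition of NB7 cells, read out with a cell viability assay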
Description: SANGER: Inhibition of human NB7 cell growth in a cell viability assay.

`Cc1cnc(-c2cnc(NCCNc3ccc(C#N)cn3)nc2-c2ccc(Cl)cc2Cl)[nH]1` [LADUVIGLUSIB] gave an IC50 (COLO-741) greater than 2560 nM, an IC50 (COLO-800) greater than 2560 nM and an IC50 (CP66-MEL) greater than 2560 nM. For the same molecule, the IC50 (DBTRG-05MG) was greater than 2560 nM, the IC50 (DU-4475) was greater than 2560 nM and the IC50 (EFO-27) was greater than 2560 nM. For the same molecule, the IC50 (GB-1) was greater than 2560 nM, the IC50 (GP5d) was greater than 2560 nM and the IC50 (HAL-01) was greater than 2560 nM. For the same molecule, the IC50 (HCC2157) was greater than 2560 nM, the IC50 (HDLM-2) was greater than 2560 nM and the IC50 (HT-1080) was greater than 2560 nM. The IC50 (KNS-81-FD) was greater than 2560 nM, the IC50 (KU-19-19) was greater than 2560 nM and the IC50 (KYSE-140) was greater than 2560 nM. For the same molecule, the IC50 (KYSE-510) was greater than 2560 nM, the IC50 (LC-2-ad) was greater than 2560 nM and the IC50 (LK-2) was greater than 2560 nM. It also gave an IC50 (LU-139) greater than 2560 nM, an IC50 (M059J) greater than 2560 nM and an IC50 (MC-IXC) greater than 2560 nM. The IC50 (MeWo) was greater than 2560 nM, the IC50 (Mo) was greater than 2560 nM and the IC50 (NB12) was greater than 2560 nM. The IC50 (NCI-H1304) was greater than 2560 nM, the IC50 (NCI-H1563) was greater than 2560 nM and the IC50 (NEC8) was greater than 2560 nM. The IC50 (NH-12) was greater than 2560 nM, the IC50 (OE33) was greater than 2560 nM and the IC50 (OS-RC-2) was greater than 2560 nM. The IC50 (OVCAR-5) was greater than 2560 nM, the IC50 (PA-1) was greater than 2560 nM and the IC50 (PSN1) was greater than 2560 nM. For the same molecule, the IC50 (RVH-421) was greater than 2560 nM, the IC50 (SCC-4) was greater than 2560 nM and the IC50 (SCH) was greater than 2560 nM. It also gave an IC50 (SK-HEP1) greater than 2560 nM, an IC50 (SK-LMS-1) greater than 2560 nM and an IC50 (SK-OV-3) greater than 2560 nM. It also gave an IC50 (SN12C) greater than 2560 nM, an IC50 (ACN) greater than 2560 nM and an IC50 (AN3-CA) greater than 2560 nM. It also gave an IC50 (BV-173) greater than 2560 nM, an IC50 (CAL-33) greater than 2560 nM and an IC50 (CAL-39) greater than 2560 nM. For the same molecule, the IC50 (CAL-54) was greater than 2560 nM, the IC50 (TE-12) was greater than 2560 nM and the IC50 (TE-5) was greater than 2560 nM. The IC50 (WM-115) was greater than 2560 nM and the IC50 (CAPAN-1) was greater than 2560 nM.

In the case of `CN(Cc1cnc2nc(N)nc(N)c2n1)c1ccc(C(=O)N[C@@H](CCC(=O)O)C(=O)O)cc1` [METHOTREXATE], the IC50 (COLO-741) is reported as 162 nM, the IC50 (COLO-800) is reported as 124 nM and the IC50 (DBTRG-05MG) is reported as 171 nM. It also gave an IC50 (EFO-27) greater than 200 nM, an IC50 (GB-1) greater than 200 nM and an IC50 (GP5d) greater than 200 nM. For the same molecule, the IC50 (HAL-01) was 22.3 nM, the IC50 (HDLM-2) was 10 nM and the IC50 (HT-1080) was greater than 200 nM. For the same molecule, the IC50 (KNS-81-FD) was greater than 200 nM, the IC50 (KP-N-YN) was greater than 200 nM and the IC50 (KU-19-19) was greater than 200 nM. It also gave an IC50 (KYSE-140) greater than 200 nM, an IC50 (KYSE-510) of 91.7 nM and an IC50 (LC-2-ad) greater than 200 nM. It also gave an IC50 (LK-2) greater than 200 nM, an IC50 (LU-139) greater than 200 nM and an IC50 (M059J) greater than 200 nM. For the same molecule, the IC50 (MC-IXC) was greater than 200 nM, the IC50 (MeWo) was greater than 200 nM and the IC50 (Mo) was greater than 200 nM. The IC50 (NB12) was greater than 200 nM, the IC50 (NB7) was greater than 200 nM and the IC50 (NCI-H1304) was greater than 200 nM. For the same molecule, the IC50 (NCI-H1563) was greater than 200 nM, the IC50 (NEC8) was greater than 200 nM and the IC50 (NH-12) was greater than 200 nM. It also gave an IC50 (OE33) greater than 200 nM, an IC50 (OS-RC-2) greater than 200 nM and an IC50 (OVCAR-5) greater than 200 nM. The IC50 (PA-1) was greater than 200 nM, the IC50 (PSN1) was greater than 200 nM and the IC50 (RVH-421) was greater than 200 nM. It also gave an IC50 (SCC-4) greater than 200 nM, an IC50 (SCH) greater than 200 nM and an IC50 (SK-HEP1) greater than 200 nM. The IC50 (SN12C) was greater than 200 nM, the IC50 (ACN) was greater than 200 nM and the IC50 (AN3-CA) was greater than 200 nM. It also gave an IC50 (BV-173) of 6.35 nM, an IC50 (CAL-33) greater than 200 nM and an IC50 (CAL-39) greater than 200 nM. It also gave an IC50 (CAL-54) greater than 200 nM, an IC50 (TE-12) greater than 200 nM and an IC50 (TE-5) greater than 200 nM. The IC50 (WM-115) was greater than 200 nM and the IC50 (CAPAN-1) was greater than 200 nM.

`O=C(c1cc(Cc2n[nH]c(=O)c3ccccc23)ccc1F)N1CCN(C(=O)C2CC2)CC1` [OLAPARIB] was tested, and the IC50 (COLO-741) was greater than 5000 nM, the IC50 (COLO-800) was 442 nM and the IC50 (DBTRG-05MG) was greater than 5000 nM. The IC50 (DU-4475) was greater than 5000 nM, the IC50 (EFO-27) was greater than 5000 nM and the IC50 (GB-1) was greater than 5000 nM. The IC50 (GP5d) was greater than 5000 nM, the IC50 (HAL-01) was greater than 5000 nM and the IC50 (HDLM-2) was greater than 5000 nM. The IC50 (HT-1080) was greater than 5000 nM, the IC50 (KNS-81-FD) was greater than 5000 nM and the IC50 (KP-N-YN) was greater than 5000 nM. For the same molecule, the IC50 (KU-19-19) was greater than 5000 nM, the IC50 (KYSE-140) was greater than 5000 nM and the IC50 (KYSE-510) was greater than 5000 nM. For the same molecule, the IC50 (LC-2-ad) was greater than 5000 nM, the IC50 (LK-2) was greater than 5000 nM and the IC50 (LU-139) was 4760 nM. The IC50 (M059J) was greater than 5000 nM, the IC50 (MC-IXC) was 3630 nM and the IC50 (MeWo) was greater than 5000 nM. It also gave an IC50 (Mo) greater than 5000 nM, an IC50 (NB12) greater than 5000 nM and an IC50 (NB7) greater than 5000 nM. It also gave an IC50 (NCI-H1304) greater than 5000 nM, an IC50 (NCI-H1563) greater than 5000 nM and an IC50 (NEC8) greater than 5000 nM. For the same molecule, the IC50 (NH-12) was greater than 5000 nM, the IC50 (OE33) was greater than 5000 nM and the IC50 (OS-RC-2) was greater than 5000 nM. For the same molecule, the IC50 (OVCAR-5) was greater than 5000 nM, the IC50 (PA-1) was 4250 nM and the IC50 (PSN1) was greater than 5000 nM. It also gave an IC50 (RVH-421) greater than 5000 nM, an IC50 (SCC-4) greater than 5000 nM and an IC50 (SCH) greater than 5000 nM. It also gave an IC50 (SK-HEP1) greater than 5000 nM, an IC50 (SN12C) greater than 5000 nM and an IC50 (ACN) greater than 5000 nM. For the same molecule, the IC50 (AN3-CA) was greater than 5000 nM, the IC50 (BV-173) was greater than 5000 nM and the IC50 (CAL-33) was greater than 5000 nM. The IC50 (CAL-39) was greater than 5000 nM, the IC50 (CAL-54) was greater than 5000 nM and the IC50 (TE-12) was greater than 5000 nM. The IC50 (TE-5) was greater than 5000 nM, the IC50 (WM-115) was greater than 5000 nM and the IC50 (CAPAN-1) was greater than 5000 nM.
